Source: patent publication US20240374579A1, “BICYCLIC PGDH INHIBITORS AND METHODS OF MAKING AND USING” (EPIRIUM BIO INC., priority 2021, published 2024)

How the values were obtained:
[1] = target: T1, 15-PGDH/HPGD (Homo sapiens, UniProt P15428); assay: hPGDH inhibitor screening biochemical assay; details: 10 nM enzyme, 15 μM PGE2, 0.25 mM NAD, fluorescence ex/em 340/485 nm
T1 construct: purchased R&D System 5660-DH
T1 sequence (P15428 1-266): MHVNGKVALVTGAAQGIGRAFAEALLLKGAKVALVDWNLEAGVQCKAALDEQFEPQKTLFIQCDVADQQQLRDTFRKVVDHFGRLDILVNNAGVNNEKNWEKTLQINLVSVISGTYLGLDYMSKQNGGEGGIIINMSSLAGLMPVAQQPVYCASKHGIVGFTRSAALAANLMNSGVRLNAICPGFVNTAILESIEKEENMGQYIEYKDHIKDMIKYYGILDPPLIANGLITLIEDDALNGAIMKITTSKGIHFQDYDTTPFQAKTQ
Protocol: A hydroxyprostaglandin dehydrogenase inhibition screening biochemical assay can be performed to assess the synthesized inhibitors provided herein. Provided herein is an exemplary biochemical assay for hPGDH inhibitor screening.
The in vitro biochemical assay can be performed in white, 384 plates in total 20 μl reaction volume consisting of 10 nM of 15-PGDH/HPGD (R&D System #5660-DH), 15 μM Prostaglandin E2 (Sigma, Cat #P5640-10MG) and 0.25 mM β-Nicotinamide adenine dinucleotide sodium salt (Sigma, Cat #N0632-5G) made in reaction buffer (50 mM Tris-HCl, pH 7.5, 0.01% Tween 20) at 10-point dose response curve for test/tool compounds. Briefly, 5 μl (4×) of compounds solution and 5 μl (final concentration, 10 nM) of enzyme solution is added to white 384 well plates and incubated for 10 mins at 37° C. 5 μl (4×) of Prostaglandin E2 and 5 μl (4×) of β-Nicotinamide adenine dinucleotide sodium salt is added to the wells and incubated for 10 mins at room temperature. Fluorescence is recorded at ex/em=340 nm/485 nm. The percentage ([…]) inhibition of enzyme activity was determined relative to positive control (1% DMSO) and IC50 was calculated using GraphPad prism software (four parameter-variable slope equation).

[2] = target: T2, 15-PGDH (Homo sapiens, UniProt P15428); assay: A549 cell based assay: PGE2 in supernatant (HTRF), fold induction over IL-1β; details: A549 cells; for fold induction at 0.001 µM: compound 0.001 μM plus IL-1β versus IL-1β only, read-out: PGE2-HTRF over IL1-β: Fold induction at 0.001 μM; for fold induction at 0.01 µM: compound 0.01 μM plus IL-1β versus IL-1β only, read-out: PGE2-HTRF over IL1-β: Fold induction at 0.01 μM; for fold induction at 0.1 µM: compound 0.1 μM plus IL-1β versus IL-1β only, read-out: PGE2-HTRF over IL1-β: Fold induction at 0.1 μM; for fold induction at 1 µM: compound 1 μM plus IL-1β versus IL-1β only, read-out: PGE2-HTRF over IL1-β: Fold induction at 1 μM
T2 construct: endogenous in cells; host or cells: A549 human lung adenocarcinoma cells
T2 sequence (P15428 1-266): T1 sequence (P15428 1-266)
Protocol: Cell Based Assay: 15-PGDH is highly expressed in resting human lung adenocarcinoma cells (A549) (Tong et al., 2006), and this cell line was used to assess 15-PGDH inhibition by MF-300Na in vitro.
In this assay, A549 cells are treated with interleukin (IL) 1β, which induces the expression of cycloxygenase-2 and the synthesis of PGE2 (Tong et al., 2006). In the studies evaluating test articles, thirty thousand A549 cells were seeded in 100 μL F12K completed media and incubated for 24 hours at 37° C. with 5% CO2 before being serum-starved for 24 hours. On the day of the experiment, buffer was changed to complete medium, and cells were incubated for 30 minutes with compounds prior to the addition of IL-1β (final concentration of 0.1-0.25 ng/mL) overnight at 37° C. with 5% CO2. Each concentration was run in triplicate. […] The PGE2 in the supernatant was detected and quantified using a Cisbio HTRF technology (Homogeneous Time-Resolved Fluorescence) kit (62P2APEG-62P2APEH) according to the manufacturer's recommendations, quantifying the fold induction of PGE2 of cells treated with IL-1b plus test article, versus treatment with IL-1b only.

IC50 [1]	fold induction at 0.001 µM [2]	fold induction at 0.01 µM [2]	fold induction at 0.1 µM [2]	fold induction at 1 µM [2]	SMILES
< 100 nM	0.98	2.14	5.31	4.88	O=C(c1cnc2c(cnn2-c2ccc(-c3ncn[nH]3)cc2)c1)N1CCC(F)(F)CC1 [Compound C-6]
< 100 nM	1.11	1.81	3.61	4.5	C[C@H]1CCCN(C(=O)c2cnc3c(c2)nnn3-c2ccc(-c3nnc[nH]3)cc2)C1 [Compound C-19]
< 100 nM	2.08	3.56	4.84	6.39	C[C@H]1CCCN(C(=O)c2cnc3c(cnn3-c3ccc(N4CCOC4=O)nc3)c2)C1 [Compound C-25]
–	1.05	1.31	1.8	3.45	C[C@H]1CCCN(C(=O)c2cnc3c(cnn3-c3ccc(N4CCOCC4)nc3)c2)C1 [Compound C-26]
< 100 nM	1.04	2.06	3.36	4.68	C[C@H]1CCCN(C(=O)c2cnc3c(cnn3-c3ccc4nc(N)nn4c3)c2)C1 [Compound C-27]
–	1.04	0.76	2.06	3.61	O=C(c1cnc2c(cnn2-c2cncc(N3CCOCC3)c2)c1)N1CCC(F)(F)CC1 [Compound C-28]
–	3.78	4.08	6.4	4.88	Cc1nc(-c2ccc(-n3nnc4cc(C(=O)N5CCC[C@H](C)C5)cnc43)cc2)no1 [Compound C-29]
–	1.16	1.68	2.5	3.79	CCOc1ccc(-n2nnc3cc(C(=O)N4CCC[C@H](C)C4)cnc32)cc1 [Compound C-30]
< 100 nM	4.07	4.94	4.94	4.86	C[C@H]1CCCN(C(=O)c2cnc3c(cnn3-c3ccc(N4CCNC4=O)nc3)c2)C1 [Compound C-57]
–	0.91	3.09	4.74	4.32	O=C(c1cnc2c(cnn2-c2ccc(-c3nnc[nH]3)cc2)c1)N1CCCC(F)(F)C1 [Compound C-59]
100 to 1000 nM	–	–	–	–	[O-][S+](CC1CC1)c1cnc2c(cnn2-c2ccc(-c3nnc[nH]3)cc2)c1 (stereo not drawn) [Compound C-95]
< 100 nM	–	–	–	–	COCC(=O)Nc1cncc(-n2ncc3cc([S+]([O-])C4CCC(F)(F)CC4)cnc32)c1 (stereo not drawn) [Compound C-124]
< 100 nM	–	–	–	–	O=C(O)c1ccc(-c2cnc3cc(C(=O)N4CCC(F)(F)CC4)ccn23)cc1 [Compound D-1, 4-(7-(4,4-difluoropiperidine-1-carbonyl)imidazo[1,2-a]pyridin-3-yl)benzoic acid]
100 to 1000 nM	–	–	–	–	O=C(O)c1ccc(-c2cnc3cc(C(=O)N4CCC(F)(F)CC4)ccn23)cn1 [Compound D-2, 5-(7-(4,4-difluoropiperidine-1-carbonyl)imidazo[1,2-a]pyridin-3-yl)picolinic acid]
100 to 1000 nM	–	–	–	–	O=C(c1ccn2c(-c3ccc(-c4ncn[nH]4)nc3)cnc2c1)N1CCC(F)(F)CC1 [Compound D-3, (3-(6-(1H-1,2,4-triazol-5-yl)pyridin-3-yl)imidazo[1,2-a]pyridin-7-yl)(4,4-difluoropiperidin-1-yl)methanone]
100 to 1000 nM	–	–	–	–	O=C(O)c1ccc(-n2cc3cc(C(=O)N4CCC(F)(F)CC4)ccc3n2)cc1 [Compound D-4, 4-(5-(4,4-difluoropiperidine-1-carbonyl)-2H-indazol-2-yl) benzoic acid]
